Measurements: patent publication US5565433A, “Sulfated β-glycolipid derivatives as cell adhesion inhibitors” (Bristol-Myers Squibb Company, priority 1996, dated 1996)

Tests used:
[1] = test system: Reverse Passive Arthus Reaction in Rats; assay: Reverse Passive Arthus Reaction in Rats, myeloperoxidase (MPO); type: in vivo; details: rat, IV, % inhibition at 3 mg single dose, 4 hours
Description: (§1) 3. Reverse Passive Arthus Reaction in Rats
(§2) The reverse passive Arthus reaction in rats is a modification of the method by Mulligan et al., as described in J. Clin. Invest., (1991 ) 88:1396-1406. This is an experimental model in which the interaction of antigen-antibody complexes and complement leads to a severe vasculitis that is associated with edema, induration, erythema and hemorrhage. The interaction between the antigen-antibody complexes and complement leads to a localized influx of neutrophils. These neutrophils release a variety of mediators that are associated with tissue damage and vascular permeability. The localized inflammatory reaction is measured using different techniques i.e., vascular permeability and neutrophil influx which is evaluated both biochemically and microscopically.
(§3) Male Sprague Dawley specific pathogen-free rats with jugular vein cannulae (280-320 g, Hill Top Labs, Pa.) are used in these studies. Animals are acclimated for at least 1 day and individually housed in stainless steel cages. The dorsal region of the rats is closely clipped 2 days prior to the experiments and divided into 4 sites on each side of the midline. Prior to all injections the rats are sedated with 0.4 ml per 300 gm rat of ketamine/rompun [1000 mg (10 ml) of ketamine HCL is mixed with 40 mg (2.0 ml) Rompun] administered IP and or inhalation anesthesia with metafane (methoxyflurane).
(§4) Bovin Serum Albumin (BSA) and rabbit polyclonal IgG rich in anti-BSA are purchased from Sigma Chemical Co. (St. Louis, Mo.). Radiolabelled ^125 I-BSA (spAct 1-5 μCi/μg) is purchased from Dupont NEN (Boston, Mass.).
(§5) Each rat is administered intradermal (ID) injection of (0.4 mg, 0.6 mg and 0.8 mg) anti-BSA in a volume of 100 μl per injection in normal saline. The ID injections are randomized near the mid dorsal region on both sides of the back bone. Immediately after the ID injections of the anti-BSA, the rats are administered intravenous (IV) injections of BSA (10 mg in 1.0 ml) in normal saline containing ^125 I labeled BSA (1 μCi/ml BSA or 5.0 μCi/kg body wt) for quantification of dermal vascular injury. Anti-inflammatory agents such as inhibitors of adhesion molecules of the present invention are administered IV at a single dose of 3 mg immediately after BSA. Four (4) hours after the IV injection of BSA, the rats are anesthetized with metafane and 2 to 3 ml of blood is withdrawn via the cannula into an anticoagulant containing (EDTA or Heparin) tube and plasma separated and saved for neutrophil and albumin quantitation. The rats are killed and the skin surrounding the injection site (15 mm diameter) is punched out and weighed. The skin samples and a fixed volume of plasma (0.1 to 1.0 ml) is analyzed in a gamma-counter for ^125 I content. Skin samples from the contralateral side are processed and analyzed for myeloperoxidase activity (MPO) as a measure of neutrophil accumulation. As needed, samples are also processed for histological evaluation of the reacted sites.
MPO is located in the azurephil granules of polymorphonuclear leukocytes (PMN). Because of its abundance in these cells (5% dry weight), this enzyme is used as a marker for tissue neutrophil content. For tissue MPO content, the method of Bradley, et al., was used as described in J. Invest. […] Change in absorbance at 450 nm was measured at room temperature using a Vmax kinetic plate reader (Molecular Devices, Pale Alto, Calif., USA). Percent inhibition of the test compound at 3 mg dose was determined as follows: [formula] […]

[2] = test system: Reverse Passive Arthus Reaction in Rats; assay: Reverse Passive Arthus Reaction in Rats, vascular permeability (VP); type: in vivo; details: rat, IV, % inhibition at 3 mg single dose, 4 hours
Description: as §1, §2, §3, §4, §5
Vascular Permeability (VP)
The calculation of the plasma protein exudation into skin is made by determining the radioactivity in the tissue and relating this to the level of radioactive albumin in the blood at the time of sacrifice. […] [formula]
Percent inhibition of the test compound at 3 mg was determined as follows: [formula] Myeloperoxidase (MPO)

P-selectin [3] = biological target: T1, P-selectin (Homo sapiens, UniProt P16109); assay: P-Selectin Adhesion Receptor Binding: cell-free ELISA, inhibition of P-selectin binding to immobilized sulfatides; details: immobilized sulfatide, pH 8.0
T1 construct: consists of the human lectin domain, the EGF domain, and two complement repeats of the human selectins; made in house
Description: 1. P-Selectin Adhesion Receptor Binding
P-selectin (GMP140, granule membrane protein-140, PADGEM, or CD62) is a calcium-dependent transmembrane protein found in alpha granules of endothelial cells and platelets. It is an inducible selectin produced on activated endothelium and platelets which recognize alpha(2-3)sialylated and alpha(1-3)fucosylated lactosaminoglycans which include the sequence, Lewis x (Zhou et al., J. Cell. Biol., (1991) 115 (2): 557-564) and sulfatides (3-sulfated galactosyl ceramides, Aruffo, et al., Cell (1991) 67: 35-44). P-selectin may be responsible for the initial adhesion events between endothelium and neutrophils as evidenced by leukocyte rolling induced by P-selectin in flow cells (Lawrence, M., and T. Springer, Cell (1991) 65: 859-873).
Based on the availability of soluble forms of P-selectin prepared as described by Aruffo, A., et al., Cell, 67, 35-44 (1991), a binding ELISA based assay modified from Foxall, et al., J., Cell Biol., 117, 895-902 (1992) was developed to measure inhibitors of P-selectin binding to immobilized sulfatides. Such inhibitors were tested in the assay described below.
0.1 ml of sulfatide (SIGMA) or lysosulfatide (SIGMA) each at 1 μg/ml in MeOH were added to the wells of a 96-well ELISA plate (ProBind, Falcon) and allowed to dry overnight at room temperature. The next day the antigen coated plates were blocked for 1.5 hours at room temperature with 5% BSA (ICN) in buffer containing 20mM Hepes and 0.15 M NaCl, pH 8.0. Wild type P-selectin and mutants thereof were first mixed with HRP-conjugated goat anti-human IgG (Fisher Scientific), serially diluted and then incubated for 30 minutes at 37° C. in buffer containing 20 mM Hepes, 0.15 M NaCl, 1% BSA and 0.8 mM CaCl2, pH 8.0 prior to addition to the BSA blocked plates. Following the 30 minute preincubation, the fusion protein-HRP conjugate immunocomplexes were incubated on the blocked antigen coated plates for 45 minutes at 37° C. in the presence or absence of the test compounds and then washed to remove any unbound proteins. Bound complexes were detected by addition of substrate buffer (95 mM NaOAc.3H2 O, 5 mM citric acid monohydrate, 1.4 mM urea/H2O2) containing 3, 3', 5, 5' Tetramethylbenzidine (SIGMA). Reactions were stopped by the addition of 3N sulfuric acid and the absorbance read on an ELISA reader at dual wavelengths 450 and 630 nm. The efficacy of these compounds was compared to that of sulfatide (positive control) or to lysosulfatide (negative control). The data is obtained as percent inhibition of specific binding [formula] and a plot of dose vs. percent inhibition of Rg binding is generated in which IC50 (μM) is calculated and reported as cell free data in Table 1.

P-selectin [4] = biological target: T1, P-selectin; assay: HL-60 Cell Binding to P-selectin Rg; type: cell-based; details: HL-60 cells binding to P-selectin Rg coated wells
Procedure: 2. HL-60 Cell Binding to P- and E-Selectin RG
Receptor globulin (Rg) Construction
The chimeric P-and E-selectin receptor globulin (Rg) consists of the human lectin domain, the EGF domain, and two complement repeats of the human selectins fused to the hinge, CH1 and CH2 domains of human IgG1. These proteins were prepared as described by Aruffo, et al., Cell (1991) 67: 35-44; Walz, et al., Science (1990) 250, 1132-1135.
Cell binding assay for Rg
The HL-60 cell line, obtained from the American Type Culture Collection, ATCC No. CCL240, was employed to investigate P-selectin Rg binding. Assays were done in 96-well tissue culture dishes. The wells were first coated with 0.5 ug goat anti-human Fc antiserum overnight, and nonspecific binding sites were blocked by incubation of the wells with 1% nonfat dry milk in phosphate buffered saline (PBS containing 0.9 mM CaCl2 and 0.8 mM MgSO4) for 30 minutes. The Rg was then bound to the anti Fc-coated wells by incubating 50 ng in 50 ul of PBS for two hours. Cells, washed twice and resuspended in PBS to remove traces of medium components, were labeled with 10 uM calcein acetoxy methyl ester for 30 minutes at 3×10^7 cells per ml at room temperature. Serum-containing medium (RPMI with 20% fetal calf serum) was added, and the cells washed, followed by resuspension in PBS and a further spin. The labeled cells, resuspended in PBS, were added to twice washed Rg-containing wells at 200,000 per well. Following a 30 minute incubation with slow shaking, the wells were aspirated and washed three times with PBS to remove unbound cells. To certain wells were added known numbers of cells for determination of a standard curve of fluorescent units per cell. The fluorescence on the plate was quantitated using a fluorescent plate reader. Following subtraction of a blank representing the binding of cells to non-Rg containing wells (<5000 cells), the specific binding to P- or E- selectin was determined.
Inhibitors of cell binding
Test compounds were prepared by dissolution to a final concentration of 20 mg/ml in dimethyl sulfoxide (DMSO), diluted in PBS to 2 mg/ml, and briefly sonicated prior to use. The Rg coated wells were preincubated at room temperature for 15 minutes with the inhibitor, and 200,000 cells were added to yield the final indicated inhibitor concentration in 160 ul of PBS. The data is obtained as percent inhibition of specific binding: [formula] and a plot of dose vs. percent inhibition of Rg binding is generated in which IC50 (μM) is calculated and reported in Table 1.

P-selectin [5] = details: Skinner et al.; cited from earlier work
P-selectin [6] = details: Larsen et al.; Erbe et al.; Aruffo et al.; cited from earlier work

T1 sequence (P16109 with tags, fused parts or gaps limits assumed): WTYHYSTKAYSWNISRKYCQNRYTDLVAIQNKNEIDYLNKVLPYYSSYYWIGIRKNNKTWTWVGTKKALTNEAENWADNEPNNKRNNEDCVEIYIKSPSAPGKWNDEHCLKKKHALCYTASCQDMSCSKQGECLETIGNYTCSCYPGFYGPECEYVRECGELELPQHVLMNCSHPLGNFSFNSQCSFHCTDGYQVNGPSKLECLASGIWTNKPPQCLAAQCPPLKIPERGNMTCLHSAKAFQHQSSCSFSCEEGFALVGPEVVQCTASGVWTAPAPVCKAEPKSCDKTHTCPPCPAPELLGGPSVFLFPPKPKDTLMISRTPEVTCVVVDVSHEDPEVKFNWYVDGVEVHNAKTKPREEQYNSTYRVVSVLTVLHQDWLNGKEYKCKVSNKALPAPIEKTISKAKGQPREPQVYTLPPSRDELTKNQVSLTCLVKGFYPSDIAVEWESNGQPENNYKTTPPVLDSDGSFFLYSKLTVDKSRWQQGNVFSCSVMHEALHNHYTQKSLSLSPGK

| Molecule | IC50 (P-selectin [3]) [nM] | RPA MPO % Inhib. [1] [%] | RPA VP % Inhib. [2] [%] | inhibition of P-selectin mediated adhesion (in words) (P-selectin [5]) | also measured |
| --- | --- | --- | --- | --- | --- |
| CCCCCCCCCCCCC/C=C/[C@@H](OC(=O)c1ccccc1)[C@H](CO[C@@H]1O[C@@H]2COC(c3ccccc3)O[C@@H]2[C@H](OS(=O)(=O)O)[C@H]1OS(=O)(=O)O)NC(=O)CCCCCCCCCCCCCCC (stereo partly drawn) [Example 10, (2S,3R,4E)-3-Benzoyloxy-2-hexadecanoylamino-1-[2,3-di-O-(sodiumoxysulfonyl)-4,6-O-benzylidene-β-D-galactopyranosyloxy)-4-octadecene] |  | 56 | 0 |  |  |
| dextran sulfate |  |  |  | inhibit P-selectin mediated adhesion |  |
| fucoidan |  |  |  | inhibit P-selectin mediated adhesion |  |
| heparin |  |  |  | inhibit P-selectin mediated adhesion |  |
| sialyl-Le^x |  |  |  |  | P-selectin binding (in words) (P-selectin [6]): has been shown to bind |

Now from value to molecule, other results behind:

| IC50 (P-selectin [3]) [nM] | Molecule | RPA MPO % Inhib. [1] [%] | RPA VP % Inhib. [2] [%] | inhibition of P-selectin mediated adhesion (in words) (P-selectin [5]) | also measured |
| --- | --- | --- | --- | --- | --- |
| 100 | CCCCCCCCCCCCC/C=C/[C@@H](OC(=O)c1ccccc1)[C@H](CO[C@@H]1O[C@H](COS(=O)(=O)O)[C@H](OS(=O)(=O)O)[C@H](OC(=O)c2ccccc2)[C@H]1OC(=O)c1ccccc1)NC(=O)CCCCCCCCCCCCCCC [Example 1, (2S,3R,4E)-3-Benzoyloxy-2-hexadecanoylamino-1-[2,3-di-O-benzoyl-4,6-di-O-(sodiumoxysulfonyl)-β-D-galactopyranosyloxy]-4-octadecene] | 24 | 42 |  |  |
| 200 | CCCCCCCCCCCCC/C=C/[C@@H](OC(=O)c1ccccc1)[C@H](CO[C@@H]1O[C@H](COS(=O)(=O)O)[C@@H](OS(=O)(=O)O)[C@H](OC(=O)c2ccccc2)[C@H]1OC(=O)c1ccccc1)NC(=O)CCCCCCCCCCCCCCC [Example 3, (2S,3R,4E)-2-Hexadecanoylamino-3-benzoyloxy-1-(2,3-di-O-benzoyl-4,6-di-O-(sodiumoxysulfonyl)-β-D-glucopyranosyloxy)-4-octadecene] | 14 | 34 |  |  |
| 1300 | CCCCCCCCCCCCC/C=C/[C@@H](OC(=O)c1ccccc1)[C@H](CO[C@@H]1O[C@H](COS(=O)(=O)O)[C@H](OC(C)=O)[C@H](OS(=O)(=O)O)[C@H]1OC(=O)c1ccccc1)NC(=O)CCCCCCCCCCCCCCC [Example 8, (2S,3R,4E)-3-Benzoyloxy-2-hexadecanoylamino-1-[2-O-benzoyl-4-O-acetyl-3,6-di-O-(sodiumoxysulfonyl)-β-D-galactopyranosyloxy]-4-octadecene] |  |  |  | IC50 (P-selectin [4]): 15000 nM |
| 600 to 4000 | CCCCCCCCCCCCCCCCCCCCCCCC(=O)N[C@@H](CO[C@@H]1O[C@H](COS(=O)(=O)O)[C@H](OS(=O)(=O)O)[C@H](OC(=O)c2ccccc2)[C@H]1OC(=O)c1ccccc1)[C@@H](CCCCCCCCCCCCCCC)OC(=O)c1ccccc1 [Example 19, (2S,3R)-3-Benzoyloxy-1-[2,3-di-O-benzoyl-4,6-di-O-(sodiumoxysulfonyl)-β-D-galactopyranosyl-oxy]-2-tetracosanoylaminooctadecane] |  |  |  | IC50 (P-selectin [4]): 45000 nM |
| 2700 | CCCCCC/C=C/[C@@H](OC(=O)c1ccccc1)[C@H](CO[C@@H]1O[C@H](COS(=O)(=O)O)[C@H](O)[C@H](O)[C@H]1OS(=O)(=O)O)NC(=O)CCCCCCCCCCCCCCC [Example 25, (2S,3R,4E)-3-Benzoyloxy-2-hexadecanoylamino-1-[2,6-di-O-(sodiumoxysulfonyl)-β-D-galactopyranosyloxy]-4-undecene] |  |  |  |  |
